# According to patent US10266549B2, “ULK1 inhibitors and methods using same” (SALK INSTITUTE FOR BIOLOGICAL STUDIES, priority 2014, dated 2019):
# Experiments:
# A549 lung cancer cells = assay: AnnexinV apoptosis analysis in A549 cells with mTOR inhibitor; type: cell-based; details: AZD8055 alone, 1 micromolar
# Experimental: A549 cells (ATCC #CCL185) and MEFs were seeded at a concentration of 2.5×10^5 cells/mL (i.e., 750,000 cells per 6 cm dish), grown overnight (18 hrs) and treated as indicted in the figure legends. Unless otherwise indicated, “starvation” is EBSS and “control” is DMEM with full serum for indicated timepoints. Samples for western blot were washed once in 1× ice cold PBS and lysed in boiling SDS lysis buffer (10 mM Tris […], 100 mM NaCl, 1% SDS). After trituration, lysates were equilibrated for protein levels using the BCA method (Pierce) and resolved on 8 to 15% SDS-PAGE gels, depending on the size of the protein. PVDF membranes were probed with indicated antibodies overnight according to the manufacturers instructions.
# For flow cytometry analysis, cells were collected at the appropriate time point, washed once in PBS, trypsinized and pelleted. For Annexin V staining, cells were washed in 1× Annexin V buffer and treated as described by the Annexin V staining protocol (BD Pharmingen, San Diego, Calif.). Briefly, cells were resuspended in Annexin V buffer to a concentration of one million per mL, 100,000 cells were then stained with 5 μL of phycoerythrin (PE)-conjugated Annexin V antibody (BD Pharmingen, San Diego, Calif.) and 5 μL of 7-amino-actinomycin D (7AAD) and then incubated at room temperature for 15 minutes. 400 μL of Annexin V buffer was then added to each sample with gentle mixing. Stained cells were analyzed using a FACScan flow cytometer (Becton Dickinson, San Jose, Calif.). Flow cytometry data was analyzed using FlowJo 8.6 software (Tree Star Inc., Ashland, Oreg.).
# There has been great interest in the role of autophagy in the survival of tumor cells, particular tumor cells faced with metabolic stress from chemotherapies or targeted therapeutics. We next examined whether compound 14 would promote apoptosis in tumor cells similar to the MEFs, selectively under conditions in which autophagy is actively engaged. […] Given that mTOR activity is a dominant regulator of ULK1 activity, and we previously noted that treatment of cells with mTOR catalytic inhibitors was sufficient to induce ULK1 activity, we examined the effect of adding in the ULK1 inhibitor in the context of treatment with mTOR catalytic inhibitors. Using a cell line well-established to be sensitive to mTORC1 inhibition, A549 lung cancer cells, we treated with escalating doses of ULK1 inhibitor while keeping a constant cytostatic growth arrest-inducing 1 micromolar dose of the mTOR catalytic inhibitor AZD8055. We observed that 5 μM compound 14 in combination with AZD8055 triggered apoptosis in 22% of A549 cells compared to 9% of the 5 μM compound 14 alone or 6% of those cells treated with AZD8055 alone. […]
# [1] = test system: PC3 human prostate cells stably expressing GFP-LC3; assay: GFP-LC3 puncta quantification in PC3 cells; type: cell-based; details: PC3 GFP-LC3, control siRNAs, 1 μM mTOR inhibitor for 4 hr
# Experimental: At 48 hr after RNAi transfection, the cells were treated with 1 μM of the catalytic mTOR inhibitors AZD8055 or INK128 for 4 hr and assessed for the presence of GFP-LC3 puncta. The average number of GFPLC3 puncta and SD for each siRNA and drug treatment are shown. SRC, c-Src; c-Src kinase, CSK.
# To test the ability of compound 14 to block autophagy and cell survival, initial studies were performed in A549 lung cancer cells, which are highly sensitive to mTOR inhibition. […] Next, we genetically assessed the requirement for ULK1 versus other kinases inhibited by compound 14 to induce autophagy after pharmacological mTOR inhibition. A robust high-throughput microscopy method for quantifying GFP-LC3 puncta was established using a PC3 prostate-cancer cell line stably expressing a GFP-LC3 construct. Using this assay, we performed a focused RNAi analysis of the top 20 kinases identified in the DiscovRx screen as best binding to compound 14. […] Strikingly, of the 18 kinases tested, only one kinase siRNA, ULK1, nearly fully abolished the LC3 puncta induced by the mTOR inhibitors (FIG. 9D).
smiles,measurement,setting,value
"COc1ccc(-c2ccc3c(N4CCOC[C@@H]4C)nc(N4CCOC[C@@H]4C)nc3n2)cc1CO [AZD8055, (5-(2,4-bis((S)-3-methylmorpholino)pyrido[2,3-d]pyrimidin-7-yl)-2-methoxyphenyl)methanol, reference compound]","apoptosis, % of A549 cells",A549 lung cancer cells,6%
same,induction in GFP-LC3 puncta formation,[1],2 fold
